Experimental data from patent publication US20260327234A1, “NOVEL COMPOUNDS AS CYP11A1 INHIBITORS AND METHODS OF USE THEREOF” (Shenzhen Ionova Life Science Co., Ltd., priority 2023, published 2026).

Key:
[1] = molecular target: T1, testosterone (T) production in NCI-H295R cells (Homo sapiens, UniProt P05108); experiment: H295R Steroid Biosynthesis Inhibition Assay - inhibition of testosterone (T) production in NCI-H295R cells; assay type: cell-based; settings: 48 h, LC-MS/MS, read-out: Inh. of T IC50
T1 construct: testosterone measured by LC-MS/MS as downstream steroid
T1 sequence (P05108 40-521): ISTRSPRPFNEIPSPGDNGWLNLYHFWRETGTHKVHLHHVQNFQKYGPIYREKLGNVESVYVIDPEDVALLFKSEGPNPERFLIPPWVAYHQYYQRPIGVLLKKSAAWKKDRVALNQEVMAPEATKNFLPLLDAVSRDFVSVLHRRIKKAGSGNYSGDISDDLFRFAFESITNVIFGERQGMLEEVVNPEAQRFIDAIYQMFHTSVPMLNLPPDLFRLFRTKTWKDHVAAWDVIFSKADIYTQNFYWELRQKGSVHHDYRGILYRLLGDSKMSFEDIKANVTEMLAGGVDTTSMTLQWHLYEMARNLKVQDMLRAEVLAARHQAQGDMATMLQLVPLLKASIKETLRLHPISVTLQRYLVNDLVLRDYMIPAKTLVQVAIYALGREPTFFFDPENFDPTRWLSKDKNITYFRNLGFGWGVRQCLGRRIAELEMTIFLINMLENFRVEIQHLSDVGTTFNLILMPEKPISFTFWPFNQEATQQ
Method: (§1) Steroid Biosynthesis Inhibition by test compounds in NCI-H295R cells (ATCC) was studied by measuring the cellular production of pregnenolone (P) catalyzed by CYP11A1 and the downstream steroid, testosterone (T). Cells were cultured in Dulbecco's modified eagle's medium F12 (DMEM/F12) with phenol red (Gibco, Cat. No. 11330032) supplemented with 2% UltroserG (Pall, Cat. No. 15950-017, USA), 1% ITS-Premix and 1% penicillin and streptomycin (Hyclone, Cat. No. SV30010, USA). Prior to the assay, cells were thawed and passed 4 times. The maximal passage number used for the assay was 10. For this assay, DMEM/F12 without phenol red supplemented with 10% charcoal-stripped fetal bovine serum (VivaCell, Cat. No. C3830-0500, USA) were used. In a 96-well plate, 60,000 cells/well were plated (90 μL/well) and incubated for 24 h. Test compounds, diluted in a serial dilution ranging from 1000 nM to 0.15 nM in the assay medium, were added to the plate. After 48 h of incubation, solution from each well were collected and transferred to individual 1.5 mL centrifuge tubes, and then 5 ng/mL deuterated testosterone (D3-testosterone) and 50 ng/mL deuterated pregnenolone (D4-pregnenolone) in 200 μL acetonitrile were added. After vigorously mixing for 5 min, the mixture was centrifuged at 12,700 rpm for 15 min. An aliquot of 250 μL supernatant was collected and dried under N2 stream. After addition of 150 μL Methanol:water (1:1, v/v) to the dried product, 50 μL sample of this solution was injected into the LC-MS/MS system for analysis.
(§2) The half-maximal inhibitory concentration (IC50) for steroid biosynthesis inhibition was determined by curve-fitting with the 4-variable inhibitory dose response equation using GraphPad Prism software.
(§3) Testosterone and pregnenolone were analyzed using Shimadzu LC30AD HPLC system (Shimadzu, Kyoto, Japan) coupled with AB SCIEX Qtrap 5500 triple quadrupole mass spectrometer (AB Sciex, Framingham, MA, USA) via ESI interface in the positive ionization mode. An ACQUITY UPLC BEH Shield RP18 column (1.7 μm, 2.1×50 mm, Milford, MA, USA) maintained at 40° C. was used to separate analytes and IS form the sample matrix.
(§4) The mobile phase was a mixture of 10 mM ammonium acetate in water containing 0.2% formic acid (A) and methanol containing 0.2% formic acid (B) at a flow rate of 0.6 mL/min. The gradient program was set as follows: from 0 min to 0.5 min, 60% B; from 0.5 min to 3.5 min, 90% B; from 3.5 min to 4.5 min, 90% B; from 4.51 min to 5.0 min, 60% B. The injection volume was […].
(§5) The MS/MS parameters were set as follows: ion spray voltage, 5500 V; curtain gas, 35 psi; Gas 1, 55 psi; Gas 2: 55 psi; temperature, […]. The optimized multiple reaction monitoring (MRM) fragmentation transitions and MS parameters of each analyte are summarized in Table 1.

CYP11A1 = molecular target: T2, CYP11A1 (Homo sapiens, UniProt P05108); experiment: H295R Steroid Biosynthesis Inhibition Assay - inhibition of pregnenolone (P) production catalyzed by CYP11A1 in NCI-H295R cells; assay type: cell-based; settings: 48 h, LC-MS/MS, read-out: Inh. of P IC50
T2 construct: measuring the cellular production of pregnenolone (P) catalyzed by CYP11A1; host or cells: NCI-H295R
T2 sequence (P05108 40-521): T1 sequence (P05108 40-521)
Method: as §1, §2, §3, §4, §5

Row | Compound | IC50 [1] | IC50 (CYP11A1)
1 | CS(=O)(=O)N1CCC(c2ncc3cc(CN4Cc5ccccc5C4)ccc3n2)CC1 [Compound 82] | 41 to 100 nM | ≤ 40 nM
2 | CCNC(=O)N1CCC(c2cnc3cc(CN4Cc5ccccc5C4)ccc3n2)CC1 [Compound 116] | ≥ 101 nM | 40 to 100 nM
3 | O=C(C(F)F)N1CCC(c2cnc3cc(CN4Cc5ccccc5C4)ccc3n2)CC1 [Compound 103] | ≥ 101 nM | 40 to 100 nM
4 | O=C(c1ncc[nH]1)N1CCC(c2cnc3cc(CN4Cc5ccccc5C4)ccc3n2)CC1 [Compound 107] | ≥ 101 nM | 40 to 100 nM
5 | O=S(=O)(C1CCCC1)N1CCC(c2cnc3cc(CN4Cc5ccccc5C4)ccc3n2)CC1 [Compound 96] | ≤ 40 nM | ≤ 40 nM
6 | CS(=O)(=O)N1CCC(c2ccc3nc(CN4Cc5ccccc5C4)ccc3n2)CC1 [Compound 79] | ≤ 40 nM | ≤ 40 nM
7 | CS(=O)(=O)N1CCC(c2nc3cc(CN4Cc5ccccc5C4)ccc3s2)CC1 [Compound 128] | 41 to 100 nM | ≤ 40 nM
8 | O=C(c1ncccn1)N1CCC(c2cnc3cc(CN4Cc5ccccc5C4)ccc3n2)CC1 [Compound 105] | ≥ 101 nM | 40 to 100 nM
9 | CC(C)S(=O)(=O)N1CCC(c2cnc3cc(CN4Cc5ccccc5C4)ccc3n2)CC1 [Compound 94] | ≤ 40 nM | ≤ 40 nM
10 | CS(=O)(=O)N1CCC(c2ccc3oc(CN4Cc5ccccc5C4)cc(=O)c3c2)CC1 [Compound 57] | ≤ 40 nM | ≤ 40 nM
11 | CS(=O)(=O)N1C[C@@H]2[C@H](C1)[C@H]2c1cc2oc(CN3Cc4ccccc4C3)cc(=O)c2o1 [Compound 13, 5-(isoindolin-2-ylmethyl)-2-((1R,5S,6r)-3-(methylsulfonyl)-3-azabicyclo[3.1.0]hexan-6-yl)-7H-furo[3,2-b]pyran-7-one] | ≤ 40 nM | ≤ 40 nM
12 | CCS(=O)(=O)N1CCC(c2cnc3cc(CN4Cc5ccccc5C4)ccc3n2)CC1 [Compound 91] | ≤ 40 nM | ≤ 40 nM

Continued, values first:

Row | IC50 [1] | IC50 (CYP11A1) | Compound
13 | ≤ 40 nM | ≤ 40 nM | CS(=O)(=O)N1CCC(c2cnc3cc(CN4Cc5ccccc5C4)ccc3n2)CC1 [Compound 55, 6-(isoindolin-2-ylmethyl)-2-(1-(methylsulfonyl)piperidin-4-yl)quinoxaline]
14 | ≤ 40 nM | ≤ 40 nM | O=c1cc(CN2Cc3ccccc3C2)oc2cc([C@@H]3CCC[C@@H](O)CC3)oc12 (racemic) [Compound 42]
15 | ≤ 40 nM | ≤ 40 nM | CS(=O)(=O)N1CCC(c2cc(Cl)c3cc(CN4Cc5ccccc5C4)ccc3n2)CC1 [Compound 77]
16 | ≤ 40 nM | ≤ 40 nM | CS(=O)(=O)N1CCC(c2cnc3cc(CN4Cc5ccccc5C4)cnc3c2)CC1 [Compound 80]
17 | ≤ 40 nM | ≤ 40 nM | O=c1cc(CN2Cc3ccccc3C2)oc2cc(C3C4CC(O)CC43)oc12 (stereo not shown) [Compound 39]
18 | ≤ 40 nM | ≤ 40 nM | CNS(=O)(=O)N1CCC(c2cnc3cc(CN4Cc5ccccc5C4)ccc3n2)CC1 [Compound 100]
19 | ≤ 40 nM | ≤ 40 nM | O=c1cc(CN2Cc3ccccc3C2)oc2cc([C@@H]3CC[C@@H](O)[C@@H](F)C3)oc12 [Compound 30]
20 | ≤ 40 nM | ≤ 40 nM | CS(=O)(=O)N1CCC(c2ccc3oc(CN4Cc5ccccc5C4)cc(=O)c3n2)CC1 [Compound 58]
21 | ≤ 40 nM | ≤ 40 nM | CS(=O)(=O)N1CCC(c2cc3cc(CN4Cc5ccccc5C4)ccc3o2)CC1 [Compound 126]
22 | ≤ 40 nM | ≤ 40 nM | CNS(=O)(=O)c1ccc(-c2cc3oc(CN4Cc5ccccc5C4)cc(=O)c3o2)cc1 [Compound 51]
23 | ≤ 40 nM | ≤ 40 nM | CS(=O)(=O)N1CCC(c2ccc3cc(CN4Cc5ccccc5C4)ncc3c2)CC1 [Compound 68]
